From US20210060121A1, “NOVEL ANTIBIOTICS AND METHODS OF USING THEM” (priority 2018, published 2021)
Converted amounts (≈) assume the structure as drawn.

Experiments:
[1] = system: MRSA(SA11I4); type: cell-based, Staphylococcus aureus
Protocol: (§1) Susceptibility to teixobactin and its analogues was tested on the selected Gram-positive strains using Tecan Freedom EVO high-throughput automated platform, following the standard broth dilution method as described by the Clinical and Laboratory Standards Institute ^3. MICS were determined according to CLSI guideline.

[2] = system: SA (ATCC29213); type: cell-based, Staphylococcus aureus
Protocol: as §1

[3] = system: MRSA and SA strains; assay: MIC, summary over S. aureus strains; type: cell-based, Staphylococcus aureus; conditions: MRSA clinical isolate and MSSA ATCC29213; from MICs
Protocol: as §1

[4] = system: MRSA SA86; type: cell-based, Staphylococcus aureus
Protocol: as §1

[5] = system: MRSA SA88; type: cell-based, Staphylococcus aureus
Protocol: as §1

[6] = system: MRSA SA11; type: cell-based, Staphylococcus aureus
Protocol: as §1

[7] = system: Enterococcus ET6; type: cell-based
Protocol: as §1

[8] = system: Enterococcus ATCCET; type: cell-based
Protocol: as §1

[9] = system: Enterococcus ET60; type: cell-based
Protocol: as §1

[10] = system: Streptococcus faecalis SF; type: cell-based
Protocol: as §1

Structure (SMILES) | Minimum inhibitory concentration (MIC) MRSA(SA11I4) [1] [µg/mL] | Minimum inhibitory concentration (MIC) SA (ATCC29213) [2] [µg/mL] | Antibacterial activity compared with teixobactin [3] | Minimum inhibitory concentration (MIC) MRSA SA86 [4] [µg/mL] | Minimum inhibitory concentration (MIC) MRSA SA88 [5] [µg/mL] | Minimum inhibitory concentration (MIC) MRSA SA11 [6] [µg/mL] | Minimum inhibitory concentration (MIC) Enterococcus ET6 [7] [µg/mL] | Minimum inhibitory concentration (MIC) Enterococcus ATCCET [8] [µg/mL] | Minimum inhibitory concentration (MIC) Enterococcus ET60 [9] [µg/mL] | Minimum inhibitory concentration (MIC) Streptococcus faecalis SF [10] [µg/mL]
CC[C@@H](C)[C@@H](NC(=O)[C@@H](CCC(N)=O)NC(=O)[C@H](CO)NC(=O)[C@@H](NC(=O)[C@@H](Cc1ccccc1)NC)[C@@H](C)CC)C(=O)N[C@H](C(=O)N[C@@H](CO)C(=O)N[C@H]1C(=O)N[C@@H](C)C(=O)N[C@@H](CC2CCCCC2)C(=O)N[C@@H]([C@@H](C)CC)C(=O)O[C@H]1C)[C@@H](C)CC [Cha10-teixobactin] | 2 (≈ 1.61 µM) | 0.5 (≈ 0.403 µM) | comparable activities as teixobactin |  |  |  |  |  |  | 
CC[C@@H](C)[C@@H](NC(=O)[C@@H](CCC(N)=O)NC(=O)[C@H](CO)NC(=O)[C@@H](NC(=O)[C@@H](Cc1ccccc1)NC)[C@@H](C)CC)C(=O)N[C@H](C(=O)N[C@@H](CO)C(=O)N[C@H]1C(=O)N[C@@H](C)C(=O)N[C@@H](CCSC)C(=O)N[C@@H]([C@@H](C)CC)C(=O)O[C@H]1C)[C@@H](C)CC [Met10-teixobactin/Methibactin, Met10-teixobactin] | 1 (≈ 0.82 µM) | 0.25 (≈ 0.205 µM) | two times higher activities than teixobactin |  |  |  |  |  |  | 
CCCC[C@@H]1NC(=O)[C@H](C)NC(=O)[C@H](NC(=O)[C@H](CO)NC(=O)[C@@H](NC(=O)[C@H](NC(=O)[C@@H](CCC(N)=O)NC(=O)[C@H](CO)NC(=O)[C@@H](NC(=O)[C@@H](Cc2ccccc2)NC)[C@@H](C)CC)[C@H](C)CC)[C@@H](C)CC)[C@H](C)OC(=O)[C@H]([C@@H](C)CC)NC1=O [Nle10-teixobactin] | 2 (≈ 1.66 µM) | 0.5 (≈ 0.416 µM) | comparable activities as teixobactin |  |  |  |  |  |  | 
CCC[C@@H]1NC(=O)[C@H](C)NC(=O)[C@H](NC(=O)[C@H](CO)NC(=O)[C@@H](NC(=O)[C@H](NC(=O)[C@@H](CCC(N)=O)NC(=O)[C@H](CO)NC(=O)[C@@H](NC(=O)[C@@H](Cc2ccccc2)NC)[C@@H](C)CC)[C@@H](C)CC)[C@@H](C)CC)[C@H](C)OC(=O)[C@H]([C@@H](C)CC)NC1=O [Nva10-teixobactin] | 1 (≈ 0.842 µM) | 0.25 (≈ 0.211 µM) | two times higher activities than teixobactin |  |  |  |  |  |  | 
CC[C@H](C)[C@H](NC(=O)[C@@H](Cc1ccccc1)NC)C(=O)N[C@@H](CO)C(=O)N[C@H](CCC(N)=O)C(=O)N[C@@H](C(=O)N[C@H](C(=O)N[C@@H](CO)C(=O)N[C@H]1C(=O)N[C@@H](C)C(=O)N[C@@H](Cc2ccc(F)cc2)C(=O)N[C@@H]([C@@H](C)CC)C(=O)O[C@H]1C)[C@@H](C)CC)[C@@H](C)CC [Phe(4-F)10-teixobactin/Flurobactin, Phe(4-F)10-teixobactin] | 1 (≈ 0.798 µM) | 0.5 (≈ 0.399 µM) | two times higher activities than teixobactin |  |  |  |  |  |  | 
CC[C@@H](C)[C@@H](NC(=O)[C@@H](CCC(N)=O)NC(=O)[C@H](CO)NC(=O)[C@@H](NC(=O)[C@@H](Cc1ccccc1)NC)[C@@H](C)CC)C(=O)N[C@H](C(=O)N[C@@H](CO)C(=O)N[C@H]1C(=O)N[C@@H](C)C(=O)N[C@@H](C2CCCCC2)C(=O)N[C@@H]([C@@H](C)CC)C(=O)N[C@H]1C)[C@@H](C)CC [T83] | 1 (≈ 0.815 µM) | 0.5 (≈ 0.408 µM) |  | 1 (≈ 0.815 µM) | 0.5 (≈ 0.408 µM) | 0.5 (≈ 0.408 µM) | 1 (≈ 0.815 µM) | 1 (≈ 0.815 µM) | 0.5 (≈ 0.408 µM) | 0.5 (≈ 0.408 µM)
CC[C@@H](C)[C@@H](NC(=O)[C@@H](CCC(N)=O)NC(=O)[C@H](CO)NC(=O)[C@@H](NC(=O)[C@@H](Cc1ccccc1)NC)[C@@H](C)CC)C(=O)N[C@H](C(=O)N[C@@H](CO)C(=O)N[C@H]1C(=O)N[C@@H](C)C(=O)N[C@@H]([C@@H](C)CC)C(=O)N[C@@H]([C@@H](C)CC)C(=O)N[C@H]1C)[C@@H](C)CC [T84] | 1 (≈ 0.833 µM) | 0.5 (≈ 0.416 µM) |  | 1 (≈ 0.833 µM) | 1 (≈ 0.833 µM) | 0.5 (≈ 0.416 µM) | 1 (≈ 0.833 µM) | 1 (≈ 0.833 µM) | 1 (≈ 0.833 µM) | 1 (≈ 0.833 µM)
CCC[C@@H]1NC(=O)[C@H](C)NC(=O)[C@H](NC(=O)[C@H](CO)NC(=O)[C@@H](NC(=O)[C@H](NC(=O)[C@@H](CCC(N)=O)NC(=O)[C@H](CO)NC(=O)[C@@H](NC(=O)[C@@H](Cc2ccccc2)NC)[C@@H](C)CC)[C@H](C)CC)[C@@H](C)CC)[C@H](C)NC(=O)[C@H]([C@@H](C)CC)NC1=O [T85] | 1 (≈ 0.843 µM) | 0.5 (≈ 0.421 µM) |  | 2 (≈ 1.69 µM) | 2 (≈ 1.69 µM) | 1 (≈ 0.843 µM) | 2 (≈ 1.69 µM) | 2 (≈ 1.69 µM) | 2 (≈ 1.69 µM) | 1 (≈ 0.843 µM)
CC[C@@H](C)[C@@H](NC(=O)[C@@H](CCC(N)=O)NC(=O)[C@H](CO)NC(=O)[C@@H](NC(=O)[C@@H](Cc1ccccc1)NC)[C@@H](C)CC)C(=O)N[C@H](C(=O)N[C@@H](CO)C(=O)N[C@H]1C(=O)N[C@@H](C)C(=O)N[C@@H](CCSC)C(=O)N[C@@H]([C@@H](C)CC)C(=O)N[C@H]1C)[C@@H](C)CC [T86] | 2 (≈ 1.64 µM) | 1 (≈ 0.821 µM) |  | 2 (≈ 1.64 µM) | 2 (≈ 1.64 µM) | 1 (≈ 0.821 µM) | 2 (≈ 1.64 µM) | 2 (≈ 1.64 µM) | 2 (≈ 1.64 µM) | 1 (≈ 0.821 µM)
CC[C@@H](C)[C@@H](NC(=O)[C@@H](CCC(N)=O)NC(=O)[C@H](CO)NC(=O)[C@@H](NC(=O)[C@@H](Cc1ccccc1)NC)[C@@H](C)CC)C(=O)N[C@H](C(=O)N[C@@H](CO)C(=O)N[C@H]1C(=O)N[C@@H](C)C(=O)N[C@@H](CC2CC2)C(=O)N[C@@H]([C@@H](C)CC)C(=O)O[C@H]1C)[C@@H](C)CC [β-cyclopropyl-Ala10-teixobactin] | 2 (≈ 1.67 µM) | 0.5 (≈ 0.417 µM) | comparable activities as teixobactin |  |  |  |  |  |  | 
